Measurements from patent US9321774B2, “Pyrrolobenzodiazepines” (MEDIMMUNE LIMITED, priority 2012, dated 2016).
Converted amounts (≈) assume the structure as drawn. Where two headings read alike, the source gives them in different places.

Experiments:
Test in all cases: CLSI broth microplate assay, MIC
Type in all cases: cell-based
MRSA strain EMRSA-16 = details: Staphylococcus aureus, read-out: Minimum inhibitory concentration (MIC mg/L) EMRSA-16
E. faecalis VRE1 = details: Enterococcus faecalis
MRSA strain BB568 = details: Staphylococcus aureus, read-out: Minimum inhibitory concentration (MIC mg/L) BB568
E. faecium VRE10 = details: Enterococcus faecium
[1] = test system: community-associated MRSA isolate USA300; details: Staphylococcus aureus, read-out: Minimum inhibitory concentration (MIC mg/L) USA300
MRSA strain EMRSA-15 = details: Staphylococcus aureus, read-out: Minimum inhibitory concentration (MIC mg/L) EMRSA-15
[2] = test system: S. aureus VISA strain Mu50; details: Staphylococcus aureus, read-out: Minimum inhibitory concentration (MIC mg/L) Mu50
[3] = EMRSA-16, Mueller-Hinton broth, 37° C.
[4] = VRE1, Mueller-Hinton broth, 37° C., read-out: Minimum inhibitory concentration (MIC mg/L) VRE1
[5] = BB568, Mueller-Hinton broth, 37° C.
[6] = VRE10, Mueller-Hinton broth, 37° C., read-out: Minimum inhibitory concentration (MIC mg/L) VRE10
[7] = EMRSA-15, Mueller-Hinton broth, 37° C.
[8] = Mu50, Mueller-Hinton broth, 37° C.
[9] = VRE1, read-out: Minimum inhibitory concentration (MIC mg/L) VRE1
[10] = VRE10, read-out: Minimum inhibitory concentration (MIC mg/L) VRE10

Structure (SMILES)	MIC (MRSA strain EMRSA-16; [3]) [mg/L]	MIC (E. faecalis VRE1; [4]) [mg/L]	MIC (MRSA strain BB568; [5]) [mg/L]	MIC (E. faecium VRE10; [6]) [mg/L]	MIC [1] [mg/L]	MIC (MRSA strain EMRSA-15; [7]) [mg/L]	MIC [2, 8] [mg/L]	MIC (MRSA strain EMRSA-16) [mg/L]	MIC (E. faecalis VRE1; [9]) [mg/L]	MIC (MRSA strain BB568) [mg/L]	MIC (E. faecium VRE10; [10]) [mg/L]	MIC [2] [mg/L]	MIC (MRSA strain EMRSA-15) [mg/L]
COc1cc2c(cc1OCCCC(=O)Nc1cc(C(=O)Nc3ccc(N4CCOCC4)cc3)n(C)c1)N=C[C@@H]1CCCN1C2=O [Compound 30, (S)-4-(4-((7-methoxy-5-oxo-2,3,5,11a-tetrahydro-1H-benzo[e]pyrrolo[1,2-a][1,4]diazepin-8-yl)oxy)butanamido)-1-methyl-N-(4-morpholinophenyl)-1H-pyrrole-2-carboxamide]	2 (≈ 3.25 µM)	1 (≈ 1.63 µM)	2 (≈ 3.25 µM)	0.5 (≈ 0.813 µM)	0.5 (≈ 0.813 µM)	0.5 (≈ 0.813 µM)	–	–	–	–	–	–	–
COc1cc2c(cc1OCCCC(=O)Nc1ccc(-c3cc(C(=O)Nc4ccc(OCCN5CCOCC5)cc4)n(C)c3)cc1)N=C[C@@H]1CCCN1C2=O [Compound 51, (S)-4-(4-(4-((7-methoxy-5-oxo-2,3,5,11a-tetrahydro-1H-benzo[e]pyrrolo[1,2-a][1,4]diazepin-8-yl)oxy)butanamido)phenyl)-1-methyl-N-(4-(2-morpholinoethoxyl)phenyl)-1H-pyrrole-2-carboxamide]	2 (≈ 2.72 µM)	0.5 (≈ 0.68 µM)	2 (≈ 2.72 µM)	1 (≈ 1.36 µM)	2 (≈ 2.72 µM)	2 (≈ 2.72 µM)	1 (≈ 1.36 µM)	–	–	–	–	–	–
COc1cc2c(cc1OCCCC(=O)Nc1cc(C(=O)Nc3ccc4occc4c3)n(C)c1)N=C[C@@H]1CCCN1C2=O [Compound 26, (S)—N-(benzofuran-5-yl)-4-(4-((7-methoxy-5-oxo-2,3,5,11a-tetrahydro-1H-benzo[e]pyrrolo[1,2-a][1,4]diazepin-8-yl)oxy)butanamido)-1-methyl-1H-pyrrole-2-carboxamide]	–	–	–	0.06 (≈ 0.105 µM)	0.125 (≈ 0.219 µM)	0.06 (≈ 0.105 µM)	0.06 (≈ 0.105 µM)	0.125 (≈ 0.219 µM)	0.06 to 0.125 (≈ 0.105 to 0.219 µM)	0.125 (≈ 0.219 µM)	–	–	–
COC(=O)c1cc(NC(=O)c2cc(NC(=O)c3cc(NC(=O)c4cc(NC(=O)c5cc(-c6ccc(NC(=O)CCCOc7cc8c(cc7OC)C(=O)N7CCC[C@H]7C=N8)cc6)cn5C)cn4C)cn3C)cn2C)cn1C [Compound 59]	–	–	–	–	16 to 32 (≈ 15.5 to 31 µM)	–	–	16 (≈ 15.5 µM)	32 (≈ 31 µM)	16 (≈ 15.5 µM)	4 (≈ 3.87 µM)	4 (≈ 3.87 µM)	2 (≈ 1.94 µM)
COC(=O)c1cc2cc(NC(=O)c3nc(NC(=O)CCCOc4cc5c(cc4OC)C(=O)N4CCC[C@H]4C=N5)cn3C)ccc2s1 [Compound 35, (S)-methyl 5-(4-(4-((7-methoxy-5-oxo-2,3,5,11a-tetrahydro-1H-benzo[e]pyrrolo[1,2-a][1,4]diazepin-8-yl)oxy)butanamido)-1-methyl-1H-imidazole-2-carboxamido)benzo[b]thiophene-2-carboxylate]	–	–	–	–	0.06 (≈ 0.0931 µM)	–	–	0.06 (≈ 0.0931 µM)	0.06 (≈ 0.0931 µM)	0.06 (≈ 0.0931 µM)	0.06 (≈ 0.0931 µM)	–	0.06 (≈ 0.0931 µM)
COC(=O)c1cc(NC(=O)c2cc(-c3ccc(NC(=O)CCCOc4cc5c(cc4OC)C(=O)N4CCC[C@H]4C=N5)cc3)co2)cn1C [Compound 54, (S)-methyl 4-(4-(4-(4-((7-methoxy-5-oxo-2,3,5,11a-tetrahydro-1H-benzo[e]pyrrolo[1,2-a][1,4]diazepin-8-yl)oxy)butanamido)phenyl)furan-2-carboxamido)-1-methyl-1H-pyrrole-2-carboxylate]	0.06 (≈ 0.0918 µM)	0.06 (≈ 0.0918 µM)	0.125 (≈ 0.191 µM)	< 0.03	0.06 (≈ 0.0918 µM)	< 0.03	0.03 (≈ 0.0459 µM)	–	–	–	–	–	–
COc1cc2c(cc1OCCCC(=O)Nc1cn(C)c(C(=O)Nc3ccc(N4CCOCC4)nc3)n1)N=C[C@@H]1CCCN1C2=O [Compound 40, (S)-4-(4-((7-methoxy-5-oxo-2,3,5,11a-tetrahydro-1H-benzo[e]pyrrolo[1,2-a][1,4]diazepin-8-yl)oxy)butanamido)-1-methyl-N-(6-morpholinopyridin-3-yl)-1H-imidazole-2-carboxamide]	–	–	–	–	0.125 (≈ 0.203 µM)	–	–	0.5 (≈ 0.811 µM)	0.25 (≈ 0.405 µM)	0.5 (≈ 0.811 µM)	0.125 (≈ 0.203 µM)	–	0.125 (≈ 0.203 µM)
COC(=O)c1cc2cc(NC(=O)c3cc(NC(=O)CCCOc4cc5c(cc4OC)C(=O)N4CCC[C@H]4C=N5)cn3C)ccc2s1 [Compound 28, (S)-methyl 5-(4-(4-((7-methoxy-5-oxo-2,3,5,11a-tetrahydro-1H-benzo[e]pyrrolo[1,2-a][1,4]diazepin-8-yl)oxy)butanamido)-1-methyl-1H-pyrrole-2-carboxamido)benzo[b]thiophene-2-carboxylate]	–	–	–	–	0.06 (≈ 0.0932 µM)	–	–	0.125 (≈ 0.194 µM)	0.06 (≈ 0.0932 µM)	0.125 (≈ 0.194 µM)	0.06 (≈ 0.0932 µM)	–	0.06 (≈ 0.0932 µM)
